Measured values as given in PMC5218480 (PLoS ONE, 2017).

Test system: MV-4-11 cells
Experiment: Gene expression microarray analysis (Affymetrix PrimeView) and GSEA
Format: cell-based, human
Conditions: ProbeSet 11717523_x_at; LIST B

Nc1ccc(-c2cccs2)cc1NC(=O)c1ccc2c(c1)cc(C1CC1)n2CCN1CCOCC1 [ACY-1035]
RFU, TMEM50B: 85.32 RFU
